In patent publication US20200277246A1, “TREATMENT METHOD, COMPOUNDS, AND METHOD OF INCREASING TRPV2 ACTIVITY” (THE FEINSTEIN INSTITUTE FOR MEDICAL RESEARCH, priority 2015, published 2020):
Several values for one entry are separate records, joined by “and”; a condition that tells them apart may be missing. Equal values may be shown once.

Tests used:
[1] = tested on: cervix carcinoma cell line; test: Cancer cell invasion, cervix carcinoma; type: cell-based
p65 NFκB = p65 NFκB nuclear location by immunofluorescence in FLS; type: cell-based; conditions: 5, 10, 30, and 60 minutes, and 24 hours
glioblastoma cell line = test: Cancer cell invasion, glioblastoma; type: cell-based
MMP-3 = test: IL-1β-induced MMP-3 expression (qPCR) in RA FLS; type: cell-based, human; conditions: IL-1β 10 ng/ml 48 hours, 10 μM, n=6 RA
Method: The qPCR conditions used have been previously described (Laragione et al., “Cia5d Regulates a New Fibroblast-Like Synoviocyte Invasion-Associated Gene Expression Signature,” Arthritis Res. Ther. 10 (4):R92 (2008), which is hereby incorporated by reference in its entirety). Briefly, total RNA (200 ng) from each sample was reverse transcribed using Superscript III (Invitrogen). MMP-2 (forward-[…] (SEQ ID NO: 1); reverse-GGTATCCATCGCCATGCT (SEQ ID NO: 2) and MMP-3 (forward-CCAGGTGTGGAGTTCCTGA (SEQ ID NO: 3); reverse-[…] (SEQ ID NO: 4)) primers were designed based on the Universal ProbeLibrary (Roche, Indianapolis, Ind.). Reactions were prepared with Absolute Blue qPCR Mix (Thermo Fisher, Waltham, Mass.), and run in duplicate on a LightCycler 480 thermocycler (Roche) using Relative Quantitative Software (Roche). Ct (threshold cycle) values were adjusted for GAPDH in each sample (ΔCt). Fold differences were calculated with the 2^−ΔΔCt method (Livak et al., “Analysis of Relative Gene Expression Data Using Real-Time Quantitative PCR and the 2(-Delta Delta C(T)) Method,” Methods 25 (4):402-408 (2001), which is hereby incorporated by reference in its entirety).

[2] = tested on: DBA1/J mice with collagen-induced arthritis; test: Collagen induced arthritis (CIA); type: in vivo, mouse
Text: CIA was induced in 8-week-old male DBA1/J mice (Jackson Laboratories) using a standard protocol (Courtenay et al., “Immunisation Against Heterologous Type II Collagen Induces Arthritis in Mice,” Nature 283 (5748):666-668 (1980); Nagler-Anderson et al., “Suppression of Type II Collagen-Induced Arthritis by Intragastric Administration of Soluble Type II Collagen,” Proc. Natl. Acad. Sci. U.S.A. 83 (19):7443-7446 (1986), which are hereby incorporated by reference in their entirety). Briefly, bovine type II collagen (Chondrex, Redmond, Wash.) was dissolved overnight in acetic acid 0.1 N and then homogenized at 1:1 with Complete Freund's Adjuvant (CFA, Difco, Detroit, Mich.). Anesthetized mice were injected intradermally with 100 μg of type II collagen emulsified in CFA in the tail. The new Trpv2 agonist LER13 (10 mg/Kg) or control vehicle (PBS 50%, PEG300 40%, PG 5%, PS80 5%) was started on day 10 (D10) and administered intra-peritoneally every-other-day (from D10 until day 55). On day 21 (D21), mice received a booster injection of 100 μg of type II collagen in incomplete Freund's adjuvant. Clinical signs of arthritis were evident on day 24 (D24).
Arthritis severity in CIA mice was scored using a modified scoring system based on Jirholt et al., “Genetic Linkage Analysis of Collagen-Induced Arthritis in the Mouse,” Eur. J. Immunol. 28 (10):3321-3328 (1998), which is hereby incorporated by reference in its entirety. Briefly, the modified scoring system ranged from 0-16 per mouse per day and included a functional component of disease severity (non-weight bearing) in the maximum score of 4 per paw. The arthritis severity index (ASI), which is the sum of all scores obtained during the observation period, was used to compare treatment groups as it provides a comprehensive assessment of arthritis severity over time, and correlates with histologic damage (Brenner et al., “The Non-MHC Quantitative Trait Locus Cia10 Contains a Major Arthritis Gene and Regulates Disease Severity, Pannus Formation and Joint Damage,” Arthritis Rheum. 52 (1):322-332 (2005); Brenner et al., “The Non-MHC Quantitative Trait Locus Cia5 Contains Three Major Arthritis Genes that Differentially Regulate Disease Severity, Pannus Formation, and Joint Damage in Collagen- and Pristane-Induced Arthritis,” J. Immunol. 174 (12):7894-7903 (2005), which are hereby incorporated by reference in their entirety).

FLS = FLS invasion, focused library screen (Table 1); type: cell-based; conditions: evaluated over 24 hours in vitro
Method: The in vitro invasiveness of FLS was assayed in a transwell system using Matrigel-coated inserts (BD Biosciences, Franklin Lakes, N.J.), as previously described (Tolboom et al., “Invasiveness of Fibroblast-Like Synoviocytes is an Individual Patient Characteristic Associated with the Rate of Joint Destruction in Patients with Rheumatoid Arthritis,” Arthritis Rheum. 52 (7):1999-2002 (2005); Laragione et al., “The Arthritis Severity Locus Cia5d is a Novel Genetic Regulator of the Invasive Properties of Synovial Fibroblasts,” Arthritis Rheum. 58 (8):2296-2306 (2008), which are hereby incorporated by reference in their entirety). Briefly, 70-80% confluent cells were harvested by trypsin-EDTA digestion, and re-suspended at 2.0×10^4 cells in 500 μl of serum-free DMEM. Cells were placed in the upper compartment of the Matrigel-coated inserts. Where indicated, O1821, LER13, or vehicle was added to the upper chamber. The lower compartment was filled with complete media and the plates were incubated at 37° C. for 24 hours. After 24 hours the upper surface of the insert was wiped with cotton-swabs to remove non-invading cells and the Matrigel layer. The opposite side of the insert was stained with Crystal Violet (Sigma) and the total number of cells that invaded through Matrigel counted at 100× magnification. Experiments were done in duplicate.

[3] = 10 mg/Kg IP every-other-day from D10, scoring to D76

C=C(C)[C@@H]1CCC(C)=C[C@H]1c1c(O)cc(C)cc1O [Compound O1821]
Cell invasion [1]: significantly reduce cell invasion
p65 NFκB activation (nuclear location) (p65 NFκB): did not change
Cell invasion (glioblastoma cell line): significantly reduce cell invasion
Decrease of IL-1β-induced MMP-3 expression (MMP-3): 92% and 90%

C#Cc1cc(O)c(C2C=C(C)CCC2C(=C)C)c(O)c1C1C=C(C)CCC1C(=C)C [Compound 13, (1R,2″R,2R,2″S)-6′-ethynyl-5,5″-dimethyl-2,2″-di(prop-1-en-2-yl)-1,1″,2,2″,3,3″,4,4″-octahydro-[1,1′:3′,1″-terphenyl]-2′,4′-diol]
Maximum arthritis severity score per mouse, mean±SD ([2]; 10 mg/Kg IP every-other-day): 7±4.2
Reduction of maximum arthritis severity scores per mouse vs vehicle ([2]; 10 mg/Kg IP every-other-day): ~50% and 50%
Arthritis severity index (ASI), mean±S.D. [2, 3]: 40.7±36.8
Reduction in mean cumulative arthritis scores vs vehicle [2, 3]: 50%
Arthritis severity (CIA) ([2]; collagen-induced arthritis): Protective in CIA
Number of joints with the maximum score ([2]; day 63): 5
Number of joints with the maximum score ([2]; day 70): 1
FLS invasion decreased by (FLS): Decreased by 64%
